Results: patent publication US20020091265A1, “4-phenyl-pyridine derivatives” (priority 1999, published 2002)
Counter-ions that a name gives are not always drawn. One block for each compound: values may come before it.

How the values were obtained:
human NK1 receptor [1] = target: T1, human NK1 receptor (Homo sapiens, UniProt P25103); experiment: [3H]substance P binding at human NK1 receptors in CHO cells; conditions: [3H]substance P 0.6 nM, 60 min room temperature, read-out: affinity (pKi) for the human NK1 receptor (converted)
T1 sequence (P25103 whole entry): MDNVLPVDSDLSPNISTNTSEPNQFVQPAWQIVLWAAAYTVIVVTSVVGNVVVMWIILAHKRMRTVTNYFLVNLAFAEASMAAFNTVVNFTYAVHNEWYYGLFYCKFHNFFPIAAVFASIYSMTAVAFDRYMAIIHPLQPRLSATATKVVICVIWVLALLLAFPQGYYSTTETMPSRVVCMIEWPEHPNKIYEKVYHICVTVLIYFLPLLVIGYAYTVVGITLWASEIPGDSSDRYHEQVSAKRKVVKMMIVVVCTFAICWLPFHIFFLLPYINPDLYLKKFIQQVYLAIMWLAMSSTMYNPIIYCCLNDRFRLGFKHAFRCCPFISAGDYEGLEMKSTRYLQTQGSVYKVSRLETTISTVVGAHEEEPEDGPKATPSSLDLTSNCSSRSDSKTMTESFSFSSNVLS
Method: All assays were performed in triplicate in at least2 separate experiments.

NK2 receptors = target: T2, NK2 receptors (Homo sapiens, UniProt P21452); experiment: Selectivity for NK1 compared to NK2 receptors; type: binding
T2 sequence (P21452 1-398): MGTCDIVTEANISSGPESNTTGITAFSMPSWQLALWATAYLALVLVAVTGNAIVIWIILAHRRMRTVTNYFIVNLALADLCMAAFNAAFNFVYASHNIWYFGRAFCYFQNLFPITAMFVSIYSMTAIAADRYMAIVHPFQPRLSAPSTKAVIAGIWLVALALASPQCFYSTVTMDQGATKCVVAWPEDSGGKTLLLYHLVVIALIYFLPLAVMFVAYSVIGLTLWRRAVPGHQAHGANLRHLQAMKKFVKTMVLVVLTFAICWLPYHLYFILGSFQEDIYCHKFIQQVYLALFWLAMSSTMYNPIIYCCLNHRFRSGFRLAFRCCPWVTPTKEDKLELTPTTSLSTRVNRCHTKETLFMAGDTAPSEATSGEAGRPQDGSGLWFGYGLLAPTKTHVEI

NK3 receptors = target: T3, NK3 receptors (Homo sapiens, UniProt P29371); experiment: Selectivity for NK1 compared to NK3 receptors; type: binding
T3 sequence (P29371 1-465): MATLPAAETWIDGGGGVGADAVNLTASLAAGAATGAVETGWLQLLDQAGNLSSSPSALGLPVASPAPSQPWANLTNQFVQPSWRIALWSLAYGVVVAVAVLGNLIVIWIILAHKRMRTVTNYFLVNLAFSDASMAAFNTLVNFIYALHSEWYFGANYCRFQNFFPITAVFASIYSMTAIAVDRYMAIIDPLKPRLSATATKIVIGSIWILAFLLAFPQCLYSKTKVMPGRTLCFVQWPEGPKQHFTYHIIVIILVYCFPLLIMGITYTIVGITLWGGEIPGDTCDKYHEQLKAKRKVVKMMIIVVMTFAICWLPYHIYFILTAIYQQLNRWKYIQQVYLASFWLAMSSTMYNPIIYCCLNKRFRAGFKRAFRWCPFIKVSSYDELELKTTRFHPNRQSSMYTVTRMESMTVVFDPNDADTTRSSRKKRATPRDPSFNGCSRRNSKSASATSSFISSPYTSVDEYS

[2] = tested on: over 50 other binding sites; experiment: Selectivity for NK1 compared to over 50 other binding sites
[3] = tested on: foot-tapping behaviour induced in gerbils with an NK1 receptor agonist; experiment: Foot-tapping behaviour induced by i.c.v. NK1 receptor agonist; type: in vivo, gerbil; conditions: for dose calculated to inhibit 50% of the foot-tapping behaviour: oral administration
Method: (§1) In vivo the compound of formula Ia antagonises foot-tapping behaviour induced in gerbils with intracerebroventricular (i.c.v.) injections of an NK1 receptor agonist. The dose for this compound calculated to inhibit 50% of the foot-tapping behaviour following oral administration was 0.2 mg/kg.
as §1, with “2-(3,5-bis-trifluoromethyl-phenyl)-N-methyl-N-[6-(4-methyl-piperazin-1-yl)-4-o-tolyl-pyridin-3-yl]-isobutyramide” for “the compound of formula Ia”, “Gerbils” for “gerbils”, “of” for “for”, “0.5” for “0.2”
In vivo the compound of formula Ic antagonises foot-tapping behaviour induced in Gerbils with intracerebroventricular (i.c.v.) injections of an NK1 receptor agonist. The dose of this compound calculated to inhibit 50% of the foot-tapping behaviour following oral administration was 1.5 mg/kg.

[4] = Pharmacokinetic parameters in rats; conditions: rat, in vivo; for bioavailability: po; for half-life: read-out: terminal half-life (converted); for Vd: read-out: volume of distribution
in vivo = conditions: dog; for bioavailability: po
human NK1 receptor [5] = target: T1, human NK1 receptor; experiment: Substance P induced Ca2+ influx in CHO cells (FLIPR); type: cell-based; design: expressed in transfected cells; host or cells: CHO cells; conditions: for effect on substance P induced Ca2+ influxes: CHO cells expressing recombinant human NK1 receptor, FLIPR; for type of antagonism at human recombinant NK1 receptors: from Ca2+ influx data
From the text: (§2) The activity in vitro of the compound of formula 1a was examined by studying its effect on substance P induced Ca^2+ influxes in CHO cells expressing the recombinant human NK1 receptor. In these cells, substance P causes a concentration dependent influx of Ca^2+ which can be measured using FLIPR technology.
The activity of 2-(3,5-bis-trifluoromethyl-phenyl)-N-methyl-N-[^6-(^4-methyl-piperazin-1-yl)-4-o-tolyl-pyridin-3-yl]-isobutyramide in vitro was examined by studying its effect on substance P induced Ca^2+influxes in CHO cells expressing the recombinant human NK1 receptor. In these cells, substance P causes a concentration dependent influx of Ca^2+ which can be measured using FLIPR technology.
as §2, with “activity” for “activity in vitro”, “Ic in vitro” for “1a”

[6] = tested on: emesis induced in ferrets by emetogens; experiment: Antiemetic test in ferrets; type: in vivo, ferret; conditions: for emesis induced by all emetogens (apomorphine, morphine, ipecacuanha, cisplatin, CuSO4): 0.3 mg/kg p.o., 2 hours before the emetogen
Method: The compound of formula 1a, 2-(3,5-Bis-trifluoromethyl-phenyl)-N-methyl-N-(6-morpholin-4-yl-4-o-tolyl-pyridin-3-yl)-isobutyramide, was also tested as an antiemetic agent in ferrets.
2-(3,5-bis-trifluoromethyl-phenyl)-N-methyl-N-[6-(4-methyl-piperazin-1-yl)-4-o-tolyl-pyridin-3-yl]-isobutyramide was also tested as an antiemetic agent in Ferrets.

[7] = tested on: motion sickness in the suncus murinus; experiment: Model of motion sickness in suncus murinus; type: in vivo; conditions: po

SMILES: CC(C)(C)NC(=O)c1cnc(Cl)cc1-c1ccc(F)cc1 [Example 84, N-tert.-Butyl-6-chloro-4-p-fluoro-phenyl-nicotinamide]
- melting point: 168 to 173 °C

SMILES: Cc1ccccc1-c1cc(N2CCOCC2)ncc1N(C)C(=O)C(C)(C)c1cc(C(F)(F)F)cc(C(F)(F)F)c1 [Ia, 2-(3,5-bis-trifluoromethyl-phenyl)-N-methyl-N-(6-morpholin-4-yl-4-o-tolyl-pyridin-3-yl)-isobutyramide]
- Ki (human NK1 receptor [1]): 1 nM
- selectivity for the NK1 receptor compared to NK2 receptors (NK2 receptors): over 2 orders of magnitude
- selectivity for the NK1 receptor compared to NK3 receptors (NK3 receptors): over 2 orders of magnitude
- selectivity for the NK1 receptor compared to over 50 other binding sites [2]: over 2 orders of magnitude
- dose calculated to inhibit 50% of the foot-tapping behaviour [3]: 0.2 mg/kg
- emesis induced by all emetogens (apomorphine, morphine, ipecacuanha, cisplatin, CuSO4) [6]: completely blocked
- clearance [4]: 4 mL/min/kg
- bioavailability [4]: 50%
- half-life [4]: 23 h
- Vd [4]: 8 L/kg
- Vd (in vivo): 22 L/kg
- clearance (in vivo): 16 mL/min/kg
- half-life (in vivo): 40 h
- bioavailability (in vivo): 30 to 40%
- effect on substance P induced Ca2+ influxes (human NK1 receptor [5]): rightward shift in the concentration effect curve of substance P
- type of antagonism at human recombinant NK1 receptors (human NK1 receptor [5]): competitive antagonist
- slope of the Schild regression (human NK1 receptor [5]; substance P induced Ca2+ influx, CHO cells): 1.1

SMILES: Cc1ccccc1-c1cc(N2CCN(Cc3n[nH]c(=O)[nH]3)CC2)ncc1C(=O)N(C)Cc1cc(C(F)(F)F)cc(C(F)(F)F)c1 [Example 58, N-(3,5-Bis-trifluoromethyl-benzyl)-N-methyl-6-[4-(5-oxo-4,5-dihydro-1H-[1,2,4]triazol-3-ylmethyl)-piperazin-1-yl]-4-o-tolyl-nicotinamide]
- Ki (human NK1 receptor [1]): 0.288 nM

SMILES: CC(C)c1cc(Cl)ncc1C(=O)NC(C)(C)C [Example 83, N-tert-Butyl-6-chloro-4-(prop-2-yl)-nicotinamide]
- melting point: 130 to 140 °C (dec.)

SMILES: Cc1ccccc1-c1cc(N(C)CCN2CCOCC2)ncc1N(C)C(=O)C(C)(C)c1cc(C(F)(F)F)cc(C(F)(F)F)c1 [Example 25, 2-(3,5-Bis-trifluoromethyl-phenyl)-N-methyl-N-{6-[methyl-(2-morpholin-4-yl-ethyl)-amino]-4-o-tolyl-pyridin-3-yl}-isobutyramide]
- Ki (human NK1 receptor [1]): 2 nM

SMILES: Cc1ccccc1-c1cc(N2CCOCC2)ncc1N(C)C(=O)C(C)(C)c1cc(C(F)(F)F)cc(C(F)(F)F)c1 (as salt: hydrochloride) [Ia, 2-(3,5-bis-trifluoromethyl-phenyl)-N-methyl-N-(6-morpholin-4-yl-4-o-tolyl-pyridin-3-yl)-isobutyramide]
- melting point: 73.5 to 76 °C

Now from value to compound, other results behind:

- melting point: 174 to 175 °C
SMILES: Cc1ccccc1-c1cc(N(C)C)ncc1N(C)C(=O)C(C)(C)c1cc(C(F)(F)F)cc(C(F)(F)F)c1 (as salt: hydrochloride) [Example 29, 2-(3,5-Bis-trifluoromethyl-phenyl)-N-(6-dimethylamino-4-o-tolyl-pyridin-3-yl)-N-methyl-isobutyramide]

- Ki (human NK1 receptor [1]): 2.51 nM
- selectivity for the NK1 receptor compared to NK2 receptors (NK2 receptors): over 2 orders of magnitude
- selectivity for the NK1 receptor compared to NK3 receptors (NK3 receptors): over 2 orders of magnitude
- selectivity for the NK1 receptor compared to over 50 other binding sites [2]: over 2 orders of magnitude
- clearance [4]: 45 mL/min/kg
- bioavailability [4]: ~30%
- half-life [4]: 11 h
- Vd [4]: 2.6 L/kg
- Vd (in vivo): 4.5 L/kg
- clearance (in vivo): 30 mL/min/kg
- half-life (in vivo): 3.5 h
- bioavailability (in vivo): 16%
- type of antagonism at human recombinant NK1 receptors (human NK1 receptor [5]): competitive antagonist
SMILES: CN(C(=O)C(C)(C)c1cc(C(F)(F)F)cc(C(F)(F)F)c1)c1cnccc1-c1ccccc1Cl [Ic, 2-(3,5-Bis-trifluoromethyl-phenyl)-N-[4-(2-chloro-phenyl)-pyridin-3-yl]-N-methyl-isobutyramide]
- total plasma concentration required to completely block the foot-tapping behaviour [3]: 100 ng/mL
- dose calculated to inhibit 50% of the foot-tapping behaviour [3]: 1.5 mg/kg
- effect on substance P induced Ca2+ influxes (human NK1 receptor [5]): inhibited this effect in a concentration dependent manner

- Ki (human NK1 receptor [1]): 3.39 nM
SMILES: Cc1ccccc1-c1ccncc1N(C)C(=O)C(C)(C)c1cc(C(F)(F)F)cc(C(F)(F)F)c1 [Example 18, 2-(3,5-Bis-trifluoromethyl-phenyl)-N-methyl-N-(4-o-tolyl-pyridin-3-yl)-isobutyramide Hydrochloride (1:1)]

- melting point: 186 to 188 °C
SMILES: CN(C(=O)C(C)(C)c1cc(C(F)(F)F)cc(C(F)(F)F)c1)c1cnccc1-c1ccccc1Cl (as salt: hydrochloride) [Ic, 2-(3,5-Bis-trifluoromethyl-phenyl)-N-[4-(2-chloro-phenyl)-pyridin-3-yl]-N-methyl-isobutyramide]

- Ki (human NK1 receptor [1]): 1 nM
SMILES: Cc1ccccc1-c1cc(N2CCNCC2)ncc1N(C)C(=O)C(C)(C)c1cc(C(F)(F)F)cc(C(F)(F)F)c1 [Example 31, 2-(3,5-Bis-trifluoromethyl-phenyl)-N-methyl-N-(6-piperazin-1-yl-4-o-tolyl-pyridin-3-yl)-isobutyramide]

- Ki (human NK1 receptor [1]): 1 nM
- selectivity for the NK1 receptor compared to NK2 receptors (NK2 receptors): over 2 orders of magnitude
- selectivity for the NK1 receptor compared to NK3 receptors (NK3 receptors): over 2 orders of magnitude
- selectivity for the NK1 receptor compared to over 50 other binding sites [2]: over 2 orders of magnitude
- clearance [4]: 3.7 mL/min/kg
- bioavailability [4]: 45%
- half-life [4]: 24 h
- Vd [4]: 5.7 L/kg
- Vd (in vivo): 15 L/kg
- clearance (in vivo): 9.2 mL/min/kg
- half-life (in vivo): 18 h
- bioavailability (in vivo): 75%
- type of antagonism at human recombinant NK1 receptors (human NK1 receptor [5]): competitive antagonist
SMILES: Cc1ccccc1-c1cc(N2CCN(C)CC2)ncc1N(C)C(=O)C(C)(C)c1cc(C(F)(F)F)cc(C(F)(F)F)c1 [Ib, 2-(3,5-bis-trifluoromethyl-phenyl)-N-methyl-N-[6-(4-methyl-piperazin-1-yl)-4-o-tolyl-pyridin-3-yl]-isobutyramide]
- total plasma concentration required to completely block the foot-tapping behaviour [3]: 30 ng/mL
- dose calculated to inhibit 50% of the foot-tapping behaviour [3]: 0.5 mg/kg
- emesis induced by all emetogens (apomorphine, morphine, ipecacuanha, cisplatin, CuSO4) [6]: completely blocked
- ED50 ([6]; Mustela putorius, po, read-out: ED50 against apomorphine-induced emesis): 0.1 mg/kg
- ED50 [7]: 0.2 mg/kg
- effect on substance P induced Ca2+ influxes (human NK1 receptor [5]): inhibited this effect in a concentration dependent manner
